Patent US20030166301A1, “Multiple binding moiety chromatography device, methods of using and methods of making same” (priority 2001, published 2003)
Where “and” joins values, the source holds several entries; their conditions need not be identical. Equal entries are not always repeated. Where two headings read alike, the source gives them in different places.

Assays:
Nicotinic Receptor = details: read-out: Kd Standard, cited from earlier work
GABAA receptor [1] = details: rat brain membranes; read-out: Kd Standard; cited from earlier work
GABAA receptor [2] = test: Frontal chromatography on MR-SP, marker (3H)-FTZ; assay type: binding, rat
Experimental: (§1) Solubilization of rat brain tissue: All of the tissue from four rat brains was homogenized in 30 ml of Tris-HCl buffer (50 mM, pH 7.4) containing 5 mM EDTA, 3 mM benzamidine and 0.2 mM PMSF for 3×20 seconds using a Polytron homogenizer (Brinkman Instruments, Westbury, N.Y., USA) at setting 6. The mixture was kept in an ice bath for 20 seconds between each homogenization step to prevent excessive heating of the tissue. The homogenized brain tissue was centrifuged for 10 minutes at 4° C. at 35,000×g, and the supernatant was discarded. The pellet was suspended in 10 ml of Tris-HCl buffer (50 mM, pH 7.4) containing 100 mM NaCl, 2 mM MgCl2, 3 mM CaCl2, 5 mM KCl, 2% sodium cholate, and 10 μg/ml leupeptin. The resulting mixture was stirred for 12 hours at 4° C. and centrifuged at 35,000×g.
(§2) Immobilization of solubilized receptors: The supernatant (receptor-cholate suspension) was mixed with 200 mg of dried IAM-PC packing material and stirred gently for 1 hour at 25° C., transferred into dialysis tubing, and dialyzed for 48 hours at 4° C. against 3×600 ml of Tris-HCl buffer (50 mM, pH 7.4) containing 5 mM EDTA, 100 mM NaCl, 0.1 mM CaCl2 and 0.1 mM PMSF. […]
(§3) The value of Vmin can be determined by running (^3H)-EB in a series of concentration of drugs and plotting 1/(Vmax−V) versus 1/(drug) extrapolating to infinite (drug). […]

NCT receptor = NCT receptor (Rattus norvegicus, UniProt P09483+P12390); assay type: binding
Experimental: as §1, §2, §3

PGP = PGP (Homo sapiens, UniProt P08183); test: Frontal chromatography on open tubular PGP column (PGP-OTB)
Sequence of PGP (P08183 whole entry): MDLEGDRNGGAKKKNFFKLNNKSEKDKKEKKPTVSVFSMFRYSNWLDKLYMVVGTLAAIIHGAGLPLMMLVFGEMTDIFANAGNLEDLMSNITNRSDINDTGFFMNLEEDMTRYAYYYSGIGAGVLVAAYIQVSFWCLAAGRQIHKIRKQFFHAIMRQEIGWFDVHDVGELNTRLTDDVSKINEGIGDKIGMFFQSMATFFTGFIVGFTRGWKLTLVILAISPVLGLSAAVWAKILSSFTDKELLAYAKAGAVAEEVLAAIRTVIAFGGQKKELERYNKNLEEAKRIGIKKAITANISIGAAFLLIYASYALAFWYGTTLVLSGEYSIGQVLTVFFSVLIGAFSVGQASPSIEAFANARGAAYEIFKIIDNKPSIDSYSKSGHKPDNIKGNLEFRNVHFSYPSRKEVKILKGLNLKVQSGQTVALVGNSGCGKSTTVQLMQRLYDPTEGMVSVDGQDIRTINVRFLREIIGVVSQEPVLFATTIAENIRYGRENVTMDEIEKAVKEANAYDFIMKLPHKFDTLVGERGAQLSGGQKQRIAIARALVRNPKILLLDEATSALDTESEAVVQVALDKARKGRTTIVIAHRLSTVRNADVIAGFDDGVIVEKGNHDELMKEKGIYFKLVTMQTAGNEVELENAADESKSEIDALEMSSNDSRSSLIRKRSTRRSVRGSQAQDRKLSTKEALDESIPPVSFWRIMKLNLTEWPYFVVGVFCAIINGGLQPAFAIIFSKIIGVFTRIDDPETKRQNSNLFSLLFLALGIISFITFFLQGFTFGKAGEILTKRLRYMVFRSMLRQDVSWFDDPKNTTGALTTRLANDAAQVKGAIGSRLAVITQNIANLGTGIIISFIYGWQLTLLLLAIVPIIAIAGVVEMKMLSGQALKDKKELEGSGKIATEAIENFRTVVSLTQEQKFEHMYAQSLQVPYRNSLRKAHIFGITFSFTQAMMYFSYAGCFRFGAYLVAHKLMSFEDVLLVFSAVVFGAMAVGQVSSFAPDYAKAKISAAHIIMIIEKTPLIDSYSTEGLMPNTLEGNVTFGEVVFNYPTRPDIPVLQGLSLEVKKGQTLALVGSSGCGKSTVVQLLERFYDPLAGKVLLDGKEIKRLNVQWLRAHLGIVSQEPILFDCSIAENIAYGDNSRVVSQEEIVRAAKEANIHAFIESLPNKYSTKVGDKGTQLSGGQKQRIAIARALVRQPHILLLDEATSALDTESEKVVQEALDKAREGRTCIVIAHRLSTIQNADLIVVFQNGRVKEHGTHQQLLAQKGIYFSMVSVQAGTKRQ
Experimental: Preparation of open tubular capillary: A 25 cm×100 u ID capillary was cleaned with 0.5 N NaOH running through for 40 minutes at low pressure followed by water for 20 minutes. Then placed in the oven at 95° C. for 30 minutes. Then APTS (90 parts water: 10 parts APTS) was run through the column for 5 minutes at high pressure and placed in the oven for 30 minutes. This was repeated and left overnight. The following morning, a 1% gluteraldehyde solution in PBS was then run through at high pressure for 30 minutes followed by air. Then avidin (10 mg in 4 mL 50 mM PBS) was run through for 3 minutes at high pressure. Then both tips were submerged in the avidin solution overnight at 4° C. It was determined at this stage that the column needs to be washed for 4-6 hours at 50 ul/min with Tris buffer prior to continuing to the next stage. The purpose being to remove any unbound avidin. A frontal study using a 5 mL sample of 0.5 nM ^3H-Vinblastin (RM062702002) was carried out to determine if vinblastin had specific binding to avidin.
Subsequently, a solution of 14 mM BioX (15 mg of BioX in 1 mL DMSO) was run through the column at high pressure for 10 minutes and left in the solution for 48 hours. A frontal study of 0.5 nM ^3H-Vinblastin (5 mL) was carried out on the BiotinX-Avidin labeled OT column to determine if any interactions between vinblastin and biotin could be seen. […]

Sequence of NCT receptor (P12390 25-500): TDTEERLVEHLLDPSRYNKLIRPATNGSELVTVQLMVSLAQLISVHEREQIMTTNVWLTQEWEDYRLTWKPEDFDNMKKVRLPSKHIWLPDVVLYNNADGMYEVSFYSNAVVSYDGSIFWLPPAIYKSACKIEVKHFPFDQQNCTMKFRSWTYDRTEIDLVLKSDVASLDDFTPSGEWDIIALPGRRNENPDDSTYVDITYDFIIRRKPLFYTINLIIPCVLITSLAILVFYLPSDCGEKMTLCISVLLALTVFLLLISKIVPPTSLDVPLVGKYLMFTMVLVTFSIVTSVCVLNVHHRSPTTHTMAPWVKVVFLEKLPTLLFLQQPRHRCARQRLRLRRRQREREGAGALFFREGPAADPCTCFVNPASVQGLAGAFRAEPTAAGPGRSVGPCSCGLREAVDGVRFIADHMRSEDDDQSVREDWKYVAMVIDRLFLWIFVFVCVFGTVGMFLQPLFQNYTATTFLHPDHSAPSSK
Sequence of NCT receptor (P09483 31-630): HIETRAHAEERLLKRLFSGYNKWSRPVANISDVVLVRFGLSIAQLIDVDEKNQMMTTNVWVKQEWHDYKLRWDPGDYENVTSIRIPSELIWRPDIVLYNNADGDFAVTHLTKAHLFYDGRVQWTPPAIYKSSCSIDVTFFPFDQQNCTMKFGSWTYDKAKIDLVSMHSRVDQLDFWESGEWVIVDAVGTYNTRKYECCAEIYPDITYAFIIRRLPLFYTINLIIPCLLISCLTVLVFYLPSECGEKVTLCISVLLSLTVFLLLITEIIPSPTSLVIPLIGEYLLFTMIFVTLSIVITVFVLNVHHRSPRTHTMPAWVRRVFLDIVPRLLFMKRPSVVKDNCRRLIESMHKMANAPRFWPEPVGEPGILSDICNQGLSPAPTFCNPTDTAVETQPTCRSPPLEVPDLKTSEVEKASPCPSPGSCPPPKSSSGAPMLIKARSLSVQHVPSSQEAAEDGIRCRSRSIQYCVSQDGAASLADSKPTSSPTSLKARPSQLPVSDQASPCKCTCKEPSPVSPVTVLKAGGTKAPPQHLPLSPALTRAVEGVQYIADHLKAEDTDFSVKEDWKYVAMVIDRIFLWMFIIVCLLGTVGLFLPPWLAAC
Experimental for NMDA receptor: as §1
Immobilization of solubilized receptors: The supernatant (receptor-cholate suspension) was mixed with 200 mg of dried IAM-PC packing material and stirred gently for 1 hour at 25° C., transferred into dialysis tubing, and dialyzed for 48 hours at 4° C. against 3×600 ml of Tris-HCl buffer (50 mM, pH 7.4) containing 5 mM EDTA, 100 mM NaCl, 0.1 mM CaCl2 and 0.1 mM PMSF.
The resulting mixture was centrifuged for 3 minutes at 4° C. at 32,000×g, and the supernatant was discarded. The pellet (MR-SP) was washed with Tris-HCl buffer (50 mM, pH 7.4) and centrifuged. This process was repeated until the supernatant was clear. The MR-SP was then collected.
Chromatographic procedures: The MR-SP (200 mg) was packed into a HR 5/2 glass column (Amersham Pharmacia Biotech, Uppsala, Sweden) to yield a 150 mm×5 mm (ID) chromatographic bed. The column was then connected to a P 1000 isocratic HPLC pump (Thermo Separations, San Jose, Calif., USA). The mobile phase consisted of Tris-HCl buffer (50 mM, pH 7.4) delivered at a flow rate 0.4 ml/min at room temperature.
In the chromatographic studies, a 50 ml sample Superloop (Amersham Pharmacia Biotech) was used to apply a series of (^3H)-marker ligand concentrations through the MR-SP column to obtain elution profiles showing front and plateau regions. […]

CN[C@H](CC(=O)O)C(=O)O [NMDA, N-methyl D-aspartate]
Displacement of (3H)-MK-801 (NMDA receptor; displacer 1 mM to 2 mM in chromatographic buffer): able to specifically displace
Kd (NMDA receptor; read-out: Kd Frontal, MR-SP, 2 nM (3H)-MK-801 marker, 1 μM L-glutamate and 1 μM glycine, two determinations (FIG. 2A, 2B)): 1.2 nM and 0.6 nM

Clc1ccc(C2CC3CCC2N3)cn1 (stereo not shown) [Epibatidine]
Kd (Nicotinic Receptor; rat brain membranes): 0.05 nM

CN1C(=O)CN=C(c2ccccc2)c2cc(Cl)ccc21 [Diazepam]
Kd (GABAA receptor [1]): 1.3 nM
Kd (GABAA receptor [2]; MR-SP from rat brain, 25 pM (3H)-FTZ marker, Tris-HCl 50 mM pH 7.4): 1 nM

CN1CCCC1c1cccnc1 (stereo not shown) [Nicotine]
Kd (Nicotinic Receptor): 0.8 nM
Effect on elution volume of 25 pM (3H)-FTZ (GABAA receptor [2]; ligand at 1 μM in mobile phase): no decrease in the elution volume
Effect on elution (breakthrough) volume of 60 pM (3H)-EB (NCT receptor): reduction in the breakthrough volume

CC[C@]1(O)C[C@@H]2CN(CCc3c([nH]c4ccccc34)[C@@](C(=O)OC)(c3cc4c(cc3OC)N(C)[C@H]3[C@@](O)(C(=O)OC)[C@H](OC(C)=O)[C@]5(CC)C=CCN6CC[C@]43[C@@H]65)C2)C1 [Vinblastin]
Bmax (binding sites on the PGP-OTB column) (PGP; not told): 3 mmol
Kd (PGP; read-out: Kd for the PGP-OTB column, 0.5 nM 3H-Vinblastin marker, r2 0.902): 97 nM
